Test results from patent publication US11492335B2, “Aryl or heteroaryl triazolone derivatives or salts thereof, or pharmaceutical compositions comprising the same” (YUHAN CORPORATION, priority 2018, dated 2022).
Structures can show the parent of a compound that is named as a salt. Where two headings read alike, the source gives them in different places.

Tests used:
Type in all cases: biochemical
recombinant human VAP-1 = target: T1, recombinant human VAP-1 (Homo sapiens, UniProt Q16853); assay: Activity on recombinant human VAP-1, Amplex Red HRP-coupled hydrogen peroxide assay, benzylamine substrate; details: recombinant human VAP-1, benzylamine substrate, read-out: Inhibitory Activity (IC50, nM) human VAP-1
T1 construct: purchased R&D systems
T1 sequence (Q16853 1-763): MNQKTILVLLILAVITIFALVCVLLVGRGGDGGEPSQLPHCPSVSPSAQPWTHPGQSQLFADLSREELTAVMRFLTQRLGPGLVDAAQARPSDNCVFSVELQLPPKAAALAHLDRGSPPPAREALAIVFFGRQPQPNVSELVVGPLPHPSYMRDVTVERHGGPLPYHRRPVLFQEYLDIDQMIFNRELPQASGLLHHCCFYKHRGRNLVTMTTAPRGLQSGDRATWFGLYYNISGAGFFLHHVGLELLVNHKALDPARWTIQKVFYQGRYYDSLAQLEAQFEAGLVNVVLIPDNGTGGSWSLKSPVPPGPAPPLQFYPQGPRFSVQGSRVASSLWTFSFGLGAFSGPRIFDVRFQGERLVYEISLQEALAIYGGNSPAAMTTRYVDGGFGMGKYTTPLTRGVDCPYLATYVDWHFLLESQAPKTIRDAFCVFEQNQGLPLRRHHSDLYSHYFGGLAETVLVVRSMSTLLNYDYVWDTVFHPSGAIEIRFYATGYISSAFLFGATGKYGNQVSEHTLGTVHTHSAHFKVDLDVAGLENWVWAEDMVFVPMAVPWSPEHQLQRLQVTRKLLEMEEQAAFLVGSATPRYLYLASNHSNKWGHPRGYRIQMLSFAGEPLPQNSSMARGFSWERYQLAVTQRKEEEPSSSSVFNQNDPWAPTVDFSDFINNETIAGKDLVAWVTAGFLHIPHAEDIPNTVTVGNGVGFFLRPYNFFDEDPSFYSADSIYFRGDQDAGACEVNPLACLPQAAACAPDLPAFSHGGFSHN
Procedure, shortened: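 Dose-response IC50 determined from reduction in resorufin signal rate (544/590 nm, 1-2 h), with 30 min compound preincubation at 37 °C and 1 mM benzylamine as substrate.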

[1] = target: T2, recombinant human DAO (diamine oxidase) (Homo sapiens, UniProt P19801); assay: Activity on recombinant human DAO, Amplex Red method, 1 mM putrescine substrate; details: recombinant human DAO, read-out: Inhibitory Activity (IC50, nM) DAO
T2 construct: purchased R&D systems
T2 sequence (P19801 20-751): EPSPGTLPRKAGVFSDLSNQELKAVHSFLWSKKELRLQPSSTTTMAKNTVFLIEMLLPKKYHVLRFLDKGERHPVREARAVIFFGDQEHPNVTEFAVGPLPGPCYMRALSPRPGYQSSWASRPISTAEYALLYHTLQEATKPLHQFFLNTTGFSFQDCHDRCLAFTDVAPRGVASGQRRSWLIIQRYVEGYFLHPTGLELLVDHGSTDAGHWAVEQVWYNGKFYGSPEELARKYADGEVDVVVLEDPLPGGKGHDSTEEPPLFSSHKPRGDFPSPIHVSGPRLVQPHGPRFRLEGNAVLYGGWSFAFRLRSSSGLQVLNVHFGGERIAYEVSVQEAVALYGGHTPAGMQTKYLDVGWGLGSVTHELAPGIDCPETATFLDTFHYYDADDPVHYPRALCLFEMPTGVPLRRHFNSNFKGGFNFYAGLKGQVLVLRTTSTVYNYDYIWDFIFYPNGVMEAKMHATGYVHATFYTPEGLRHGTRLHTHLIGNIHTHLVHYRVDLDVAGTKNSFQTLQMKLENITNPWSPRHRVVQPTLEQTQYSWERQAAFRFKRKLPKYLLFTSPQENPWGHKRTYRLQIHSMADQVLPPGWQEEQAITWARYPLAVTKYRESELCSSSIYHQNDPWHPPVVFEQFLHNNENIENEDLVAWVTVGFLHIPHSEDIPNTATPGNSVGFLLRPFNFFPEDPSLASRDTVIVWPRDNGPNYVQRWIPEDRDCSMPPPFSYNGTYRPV
Procedure, shortened: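 Inhibition of recombinant human DAO (diamine oxidase, R&D systems) was assessed with the Amplex Red Hydrogen Peroxide Assay Kit. Hydrogen peroxide produced from 1 mM putrescine was detected through an HRP-coupled reaction that converts Amplex Red into fluorescent resorufin, read at 544 nm excitation and 590 nm emission. IC50 values came from four-parameter logistic fits in GraphPad Prism.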

[2] = target: T3, recombinant human MAO-B (monoamine oxidase-B) (Homo sapiens, UniProt P27338); assay: Activity on recombinant human MAO-B, Amplex Red method, 1 mM benzylamine substrate; details: read-out: Inhibitory Activity (IC50, nM) MAO-B
T3 construct: purchased Sigma-Aldrich
T3 sequence (P27338 1-520): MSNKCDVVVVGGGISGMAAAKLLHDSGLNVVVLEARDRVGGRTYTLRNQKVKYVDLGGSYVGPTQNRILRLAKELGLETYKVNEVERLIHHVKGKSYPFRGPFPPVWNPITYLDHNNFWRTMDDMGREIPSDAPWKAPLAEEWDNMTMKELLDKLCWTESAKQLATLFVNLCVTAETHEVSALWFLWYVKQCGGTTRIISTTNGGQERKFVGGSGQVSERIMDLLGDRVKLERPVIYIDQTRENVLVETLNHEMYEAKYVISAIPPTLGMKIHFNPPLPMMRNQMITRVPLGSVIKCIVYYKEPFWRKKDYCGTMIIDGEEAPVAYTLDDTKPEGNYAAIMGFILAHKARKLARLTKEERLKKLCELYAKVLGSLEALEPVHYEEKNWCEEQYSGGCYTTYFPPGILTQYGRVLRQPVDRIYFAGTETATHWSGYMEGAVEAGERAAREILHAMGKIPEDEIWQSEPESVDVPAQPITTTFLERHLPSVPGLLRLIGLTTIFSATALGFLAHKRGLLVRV
Procedure, shortened: (§1)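 Amplex Red/HRP coupled read-out of H2O2 with 0.5 mM tyramine for MAO-A or 1 mM benzylamine for MAO-B, following a 30-min compound–enzyme preincubation at 37° C. IC50 from percent inhibition of signal rate relative to uninhibited control.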

[3] = target: T4, recombinant human MAO-A (monoamine oxidase-A) (Homo sapiens, UniProt P21397); assay: Activity on recombinant human MAO-A, Amplex Red method, 0.5 mM tyramine substrate; details: read-out: Inhibitory Activity (IC50, nM) MAO-A
T4 construct: purchased Sigma-Aldrich
T4 sequence (P21397 1-527): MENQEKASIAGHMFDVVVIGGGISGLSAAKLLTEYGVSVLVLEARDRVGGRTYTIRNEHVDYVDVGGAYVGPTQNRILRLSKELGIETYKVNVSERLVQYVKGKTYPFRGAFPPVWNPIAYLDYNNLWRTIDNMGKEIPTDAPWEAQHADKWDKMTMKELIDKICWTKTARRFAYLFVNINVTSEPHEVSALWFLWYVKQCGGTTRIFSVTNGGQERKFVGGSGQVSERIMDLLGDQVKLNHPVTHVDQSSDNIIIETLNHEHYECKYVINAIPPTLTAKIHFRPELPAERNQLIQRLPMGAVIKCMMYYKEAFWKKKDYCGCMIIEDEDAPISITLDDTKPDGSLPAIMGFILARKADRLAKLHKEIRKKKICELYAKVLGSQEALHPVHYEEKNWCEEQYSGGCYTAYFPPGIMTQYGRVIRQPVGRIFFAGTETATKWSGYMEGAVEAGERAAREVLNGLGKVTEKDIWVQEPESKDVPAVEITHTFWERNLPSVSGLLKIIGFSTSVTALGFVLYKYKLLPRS
Procedure, shortened: as §1

[4] = 1 mM putrescine, * = between 10 and 100 nM, ** = between 300 and 1000 nM

SMILES | IC50 (recombinant human VAP-1) [nM] | IC50 ([1]; 1 mM putrescine substrate) [nM] | IC50 ([2]; 1 mM benzylamine substrate) [nM] | IC50 ([3]; 0.5 mM tyramine substrate) [nM] | IC50 (recombinant human VAP-1; 30 min preincubation at 37° C.) [nM] | IC50 [1, 4] [nM] | IC50 ([2]; 1 mM benzylamine) [nM] | IC50 ([3]; 0.5 mM tyramine) [nM]
COc1ccc(-c2ccc(C)c(-n3cnn(C/C(=C/F)CN)c3=O)n2)cn1 [Example 212, 2-[(2E)-2-(aminomethyl)-3-fluoroprop-2-en-1-yl]-4-(6′-methoxy-5-methyl-2,3′-bipyridin-6-yl)-2,4-dihydro-3H-1,2,4-triazol-3-one hydrochloride] | 45 | 2200 | > 10000 | > 100000 | – | – | – | –
CC(C)c1nc(-c2ccc(-c3cccc(-n4cnn(C/C(=C/F)CN)c4=O)n3)cc2)no1 [Example 180, 2-[(2E)-2-(aminomethyl)-3-fluoroprop-2-en-1-yl]-4-(6-{4-[5-(propan-2-yl)-1,2,4-oxadiazol-3-yl]phenyl}pyridin-2-yl)-2,4-dihydro-3H-1,2,4-triazol-3-one] | 2.8 | 1.4 | 180 | 120000 | – | – | – | –
CN(C)c1ccc(-c2cccc(-n3cnn(C/C(=C/F)CN)c3=O)c2)cc1 [Example 51, 2-[(2E)-2-(aminomethyl)-3-fluoroprop-2-en-1-yl]-4-[4′-(dimethylamino)biphenyl-3-yl]-2,4-dihydro-3H-1,2,4-triazol-3-one hydrochloride] | – | – | – | – | 2 | > 10000 | 5600 | > 100000
NC/C(=C\F)Cn1ncn(-c2ncc(-c3ccc(-c4ncon4)cc3)s2)c1=O [Example 229] | 0.98 | < 100 | 12 | 130 | – | – | – | –
NC/C(=C\F)Cn1ncn(-c2cnc(-c3cccc(-c4nc[nH]n4)c3)cn2)c1=O [Example 219, 2-[(2E)-2-(aminomethyl)-3-fluoroprop-2-en-1-yl]-4-{5-[3-(1H-1,2,4-triazol-3-yl)phenyl]pyrazin-2-yl}-2,4-dihydro-3H-1,2,4-triazol-3-one] | 2.3 | < 100 | 41 | > 100000 | – | – | – | –
COc1cc(-c2cccc(-n3cnn(C/C(=C/F)CN)c3=O)c2)ccn1 [Example 79, 2-[(2E)-2-(aminomethyl)-3-fluoroprop-2-en-1-yl]-4-[3-(2-methoxypyridin-4-yl)phenyl]-2,4-dihydro-3H-1,2,4-triazol-3-one hydrochloride] | – | – | – | – | 0.47 | 2.2 | 7900 | > 100000

The next lines start with the values.

IC50 (recombinant human VAP-1) [nM] | IC50 ([1]; 1 mM putrescine substrate) [nM] | IC50 ([2]; 1 mM benzylamine substrate) [nM] | IC50 ([3]; 0.5 mM tyramine substrate) [nM] | IC50 (recombinant human VAP-1; 30 min preincubation at 37° C.) [nM] | IC50 [1, 4] [nM] | IC50 ([2]; 1 mM benzylamine) [nM] | IC50 ([3]; 0.5 mM tyramine) [nM] | SMILES
0.9 | 11 | 300 | > 100000 | – | – | – | – | NC/C(=C\F)Cn1ncn(-c2cc(C#Cc3cccnc3)ccn2)c1=O [Example 245, 2-[(2E)-2-(aminomethyl)-3-fluoroprop-2-en-1-yl]-4-[4-(pyridin-3-ylethynyl)pyridin-2-yl]-2,4-dihydro-3H-1,2,4-triazol-3-one hydrochloride]
0.9 | 15 | 1600 | 34000 | – | – | – | – | NC/C(=C\F)Cn1ncn(-c2cccc(/C=C/c3ccc(C(F)(F)F)cc3)n2)c1=O [Example 238, 2-[(2E)-2-(aminomethyl)-3-fluoroprop-2-en-1-yl]-4-(6-{(E)-2-[4-(trifluoromethyl)phenyl]ethenyl}pyridin-2-yl)-2,4-dihydro-3H-1,2,4-triazol-3-one Hydrochloride]
0.2 | 35 | > 10000 | > 100000 | – | – | – | – | NC/C(=C\F)Cn1ncn(-c2cccc(C#Cc3ccc4c(c3)CCC(=O)N4)n2)c1=O [Example 254, 6-[2-[6-[1-[(E)-2-(aminomethyl)-3-fluoro-allyl]-5-oxo-1,2,4-triazol-4-yl]-2-pyridyl]ethynyl]-3,4-dihydro-1H-quinolin-2-one]
0.6 | 18 | 940 | > 100000 | – | – | – | – | NC/C(=C\F)Cn1ncn(-c2cccc(C#Cc3cccnc3)c2)c1=O [Example 243, 2-[(2E)-2-(aminomethyl)-3-fluoroprop-2-en-1-yl]-4-[3-(pyridin-3-ylethynyl)phenyl]-2,4-dihydro-3H-1,2,4-triazol-3-one hydrochloride]
